Row | melting point | Structure (SMILES)
1 | > 230 °C | O=C(O)C(=Cc1c[nH]c2ncccc12)c1ccccc1 [compound 300, 2-phenyl-3-(1H-pyrrolo[2,3-b]pyridin-3-yl)-2-propenoic acid]
2 | 177 to 179 °C (dec.) | CCCCNC(=O)C(=Cc1c[nH]c2ncccc12)c1ccccc1 [compound 301, N-butyl-2-phenyl-3-(1H-pyrrolo[2,3-b]pyridin-3-yl)-2-propenamide]
3 | 222 to 224 °C | NC(=O)C(=Cc1c[nH]c2ncccc12)c1ccccc1 [compound 299, 2-phenyl-3-(1H-pyrrolo[2,3-b]pyridin-3-yl)-2-propenamide]
